Consider two compounds from publication PMC2879651 (Bioanalysis, 2009).

Like-named read-outs stand apart in the source and are kept apart here.

Data set [1] is classed as in vivo, male FVB/N mice. As to conditions: for Cmax / MRT: male, FVB/N, mouse, ip, 2 mg/kg; for AUC0→t (AUC0→60 min): 0-60 min.
For data set [2] the following is noted: fatal intoxication after ingestion of Ayahuasca preparation; cited from earlier work.
For data set [3] the following is noted: rats, 1 hour after bufotenine 30 mg/kg s.c.; cited from earlier work.

As to `COc1ccc2[nH]cc(CCN(C)C)c2c1` [5-MeO-DMT, 5-Methoxy-N,N-dimethyltryptamine, reference compound], in data set [1] (serum), the concentration peaked (Cmax) at 298 ± 29 ng/mL and the mean residence time MRT is 17.6 min. Also, in data set [1] (mice, 60 min after 5-MeO-DMT 2 mg/kg i.p.), the “serum concentration at 60 min relative to Cmax” value is 4.4%. For the same compound, in data set [1] (mice, serum, after 5-MeO-DMT 2 mg/kg i.p., 0-90 min), the “AUC0→t (AUC0→90 min)” value was 6,000 ± 1,240 µg·min/L. For the same compound, the “concentration in heart blood of decedent” value in data set [2] was 1.88 mg/L.
In the case of `CN(C)CCc1c[nH]c2ccc(O)cc12` [Bufotenine, bufotenine], in data set [1] (serum), the highest level (Cmax) was 10.6 ± 2.3 ng/mL and the MRT is 24.3 min. In data set [1] (mice, 90 min after 5-MeO-DMT 2 mg/kg i.p., metabolite), the “serum concentration at 90 min” value is reported as “below the LLOQ”. For the same compound, the “systemic exposure (AUC) to bufotenine relative to that to 5-MeO-DMT” value in data set [1] (mice, after 5-MeO-DMT 2 mg/kg i.p.) was “about 1/14”. In addition, in data set [1] (mice, serum, after 5-MeO-DMT 2 mg/kg i.p., bufotenine as metabolite), the Tmax was 13.3 ± 5.8 min. Further, the “AUC0→t (AUC0→60 min)” value in data set [1] (mice, serum, after 5-MeO-DMT 2 mg/kg i.p., metabolite) is recorded as 388 ± 82 µg·min/L. Further, the “AUC0→t (AUC0→60 min)” value in data set [1] (mice, serum, after 5-MeO-DMT 2 mg/kg i.p., metabolite, listed as bufotenine) is 388 µg·min/L. Further, the “brain over blood ratio of drug concentration” value in data set [3] is reported as 1/15.
